From US6861070B1, “Medicinal compositions for treating evacuatory insufficiency” (Yamanouchi Pharmaceutical Co., Ltd., priority 1998, dated 2005) come the findings set out here.

Counter-ions that a name gives are not always drawn.

For this series, the system named is patients diagnosed to be voiding dysfunction associated with neurogenic bladder. The experiment in a line: Clinical test to patients of voiding dysfunction associated with neurogenic bladder. Type of series: in vivo. As for the experimental part:
Test Example 1. Clinical Test to Patients of Voiding Dysfunction Associated with Neurogenic Bladder. Clinical test was carried out under the following conditions to the causes of voiding dysfunction associated with neurogenic bladder. Patients: Sixty patients diagnosed to be voiding dysfunction associated with neurogenic bladder (excluding the cases where the cause was peripheral diseases). Used drug and method of administration: Capsule preparation containing 0.2 mg of tamsulosin hydrochloride or placebo capsule was used and two capsules were orally administered after breakfast (once daily) for four weeks. […] Approximate safety was evaluated as no problem, little problems, some problems and problems according to the presence/absence and degree of side effect, change of blood pressure and pulse rate, and abnormal change in clinical date. Impression by the patient was judged to be much improvement, improvement, some improvement, no change, some worsening, worsening and much worsening. Finally, degree of improvement as a whole, approximate safety and impression by patient were taken into consideration and the final judgement for the Usefulness wan judged to be any of the […]—very useful, useful, somewhat useful and not preferable.

Setting [1] is: compared with placebo group, two 0.2 mg capsules orally once daily, four weeks.
[2] abbreviates: share of patients (12/20), two 0.2 mg capsules orally once daily, four weeks.
The mark [3] stands for this setting: two 0.2 mg capsules orally once daily after breakfast, four weeks, n = 16.
The mark [4] stands for this setting: two 0.2 mg capsules orally once daily after breakfast, four weeks, n = 23.

As to `CCOc1ccccc1OCCN[C@H](C)Cc1ccc(OC)c(S(N)(=O)=O)c1` [Tamsulosin Hydrochloride, (R)(−)-5-{2-{[2-(o-ethoxyphenoxy)ethyl}amino]propyl}-2-methoxybenzene-sulfonamide], under setting [1], the “Approximate safety (side effect, blood pressure, pulse rate, clinical data)” value is reported as “no significant difference” and the Impression by patient result was “no significant difference”. Further, the “Usefulness as a therapeutic agent (final judgement, in words)” value (impression by the patients further taken into consideration) is on record as “useful as a therapeutic agent”. In addition, the “Improvement of subjective symptom and objective observation and improvement as a whole (in words)” value (patients suffering from voiding dysfunction associated with neurogenic bladder) was “significant improvement”. Besides, the “Degree of Improvement in Subjective Symptoms, ≧Medium Improvement” value (share of patients (10/23), two 0.2 mg capsules orally once daily, four weeks) is on record as 43.5%. Also, under setting [2], the “Degree of Improvement as a Whole, ≧Medium Improvement” value turned out to be 60.0% and the “Degree of Improvement in Objective Observation, ≧Medium Improvement” value came to 80.0%. Further, for the setting “share of patients (12/23), two 0.2 mg capsules orally once daily, four weeks”, the “Usefulness, ≧Useful” value worked out at 52.2%. For the same compound, under setting [3], the “Average Urinary Flow (Changing Amt)” value turned out to be 1.2 ± 1.66 mL/s, the “Maximum Urinary Flow (Changing Amt)” value was found to be 2.5 ± 3.01 mL/s and the “Residual Urine Rate (Changing Amt)” value was −13 ± 20.0%. Under setting [4], the “Residual Urine Amount (Changing Amt)” value was -18 ± 80.1 mL and the “Total Score (Changing Rate) of subjective symptoms (1)-(8)” value was −31 ± 34.2%.
